Measured values published in patent US12378256B2, “Heterocyclic compound” (Takeda Pharmaceutical Company Limited, priority 2017, dated 2025).

Assays:
Male SD rats = assay: Rat defecation experiment; assay type: in vivo; details: mean ± standard error
Method: Rat Defecation Experiment
Male SD rats (5-6 weeks old) were used after an acclimation period for about 1 week. A test drug (1 mg/kg or 3 mg/kg) was suspended in 0.5% methylcellulose solution and orally administered at a volume of 5 mL/kg, and the number of feces 2 hr later was counted. Only 0.5% methylcellulose was administered to a solvent administration group.

MDR1 = biological target: T1, MDR1 (Homo sapiens, UniProt P08183); assay: MDR1 membrane permeability test; assay type: in vitro ADME; details: pH 7.4, efflux ratio (ER), human MDR1-expressing LLC-PK1 cells, 37° C., read-out: MDR1 substrate screening 1 μM (MDRSUB1)/Ratio (NUMBER)
T1 construct: expressed in transfected cells; host or cells: LLC-PK1 (porcine kidney cells)
T1 sequence (P08183 whole entry): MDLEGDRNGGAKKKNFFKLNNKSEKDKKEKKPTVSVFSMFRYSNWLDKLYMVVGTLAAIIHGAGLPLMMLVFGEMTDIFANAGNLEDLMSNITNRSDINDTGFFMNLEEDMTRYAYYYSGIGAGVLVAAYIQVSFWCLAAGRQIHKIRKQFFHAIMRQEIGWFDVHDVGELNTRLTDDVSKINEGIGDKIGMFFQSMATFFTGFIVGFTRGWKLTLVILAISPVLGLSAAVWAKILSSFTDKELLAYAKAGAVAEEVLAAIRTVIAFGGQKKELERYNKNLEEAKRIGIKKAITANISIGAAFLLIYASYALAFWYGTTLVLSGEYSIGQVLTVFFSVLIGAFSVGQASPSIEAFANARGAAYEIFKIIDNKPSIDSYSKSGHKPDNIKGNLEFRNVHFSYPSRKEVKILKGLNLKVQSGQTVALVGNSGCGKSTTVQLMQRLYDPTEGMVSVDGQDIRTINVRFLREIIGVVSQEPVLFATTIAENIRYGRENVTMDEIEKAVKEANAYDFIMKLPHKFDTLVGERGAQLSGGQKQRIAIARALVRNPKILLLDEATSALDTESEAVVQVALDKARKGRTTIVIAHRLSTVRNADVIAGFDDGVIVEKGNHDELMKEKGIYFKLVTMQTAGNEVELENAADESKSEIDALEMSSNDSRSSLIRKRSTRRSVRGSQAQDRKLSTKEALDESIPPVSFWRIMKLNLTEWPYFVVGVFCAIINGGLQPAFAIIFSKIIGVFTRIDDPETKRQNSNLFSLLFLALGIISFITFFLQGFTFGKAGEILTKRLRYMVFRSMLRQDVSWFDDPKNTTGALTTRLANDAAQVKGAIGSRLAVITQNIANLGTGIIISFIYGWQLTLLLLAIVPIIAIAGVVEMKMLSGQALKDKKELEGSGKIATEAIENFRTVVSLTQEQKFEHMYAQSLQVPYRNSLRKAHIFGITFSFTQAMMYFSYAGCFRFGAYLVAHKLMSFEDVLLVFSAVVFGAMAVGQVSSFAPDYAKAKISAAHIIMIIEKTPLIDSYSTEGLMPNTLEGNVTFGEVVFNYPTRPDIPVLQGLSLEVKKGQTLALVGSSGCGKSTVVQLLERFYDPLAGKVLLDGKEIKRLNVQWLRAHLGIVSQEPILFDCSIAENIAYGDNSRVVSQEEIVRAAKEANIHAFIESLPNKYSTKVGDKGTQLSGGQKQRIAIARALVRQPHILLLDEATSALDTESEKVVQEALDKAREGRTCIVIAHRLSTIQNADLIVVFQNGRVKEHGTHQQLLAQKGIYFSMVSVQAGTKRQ
Method: MDR1 Membrane Permeability Test
When MDR1 is expressed in excess in LLC-PK1 cell, which is a polar cell, MDR1 is localized in apical membrane (A), thus promoting transcellular transport from the basement membrane side (B) toward direction A. When a ratio to the transcellular transport in the opposite direction is taken and a ratio to a control cell in which a mock vector has been introduced is further taken, an efflux ratio of MDR1 to simple diffusion (corrected efflux ratio) is calculated. Similarly, when a brain/plasma concentration ratio in Mdr1(−/−) mouse is divided by a brain/plasma concentration ratio in wild-type mouse, an efflux ratio of Mdr1 to simple diffusion in blood-brain barrier (BBB) (Kp, brain ratio, higher value means lower central nervous system permeability) is calculated. Adachi Y. et al. (Reference 1) has reported a positive correlation between corrected efflux ratio and Kp, brain ratio (FIG. 5(C)), and efflux ratio in MDR1 expressing cell and Kp, brain ratio (FIG. 5(B)).
To confirm the central nervous system permeability of the compounds of the present invention, a MDR1 membrane permeability test was performed by the following method.
Digoxin and lucifer yellow (LY) were purchased from Sigma-Aldrich, Diclofenac, colchicine and alprenolol were purchased from Wako Pure Chemical Industries, Ltd., and other reagents used were commercially available products of special grade.
Human MDR1-expressing LLC-PK1 cells were cultured according to the report of Takeuchi et al. (Reference 2). Human MDR1-expressing LLC-PK1 cells were cultured in 10% fetal bovine serum (Invitrogen), 500 μg/ml G418 (Invitrogen), 150 ng/ml colchicine-containing M199 medium (Invitrogen) under 5% CO2 conditions at 37° C.
Transcellular transport was performed according to the report of Sugimoto et al. (Reference 3). The cells were cultured for 3 days on HTS Transwell (registered trademark) 96 well permeable support (pore size 0.4 μm, 0.143 cm^2 surface area, Corning Life Sciences) having polyethylene terephthalate membrane on which the cells had been seeded at 3.45×10^4 cells/well. After preincubation in M199 medium (containing 10 mmol/L HEPES, 1% BSA, pH 7.4) for 30 min, a drug solution (10 μmol/L digoxin, 200 μmol/L LY, […]) dissolved in M199 medium was added to the apical side or basolateral side of the Transwell by 75 or 250 μL each and the cells were cultured under 5% CO2 conditions at 37° C. After 1 hr, the sample was collected from the side opposite to the side where the drug solution was added, and the concentration of the test compound was measured by LC-MS/MS. As an internal standard substance, 100 ng/mL alprenolol and diclofenac were used. The analysis conditions were as follows. • LC: UFLC LC-20 (Shimadzu) • MS/MS: API4000 (AB Sciex Instruments) • LC condition: gradient method
[formula] • Amount: amount of transported digoxin/well • Area: surface area of cell monolayer (0.143 cm^2) • C0: concentration of drug solution added • Time: incubation time

| SMILES | number of feces 2 hr later (Male SD rats; 1 mg/kg oral) | number of feces 2 hr later (Male SD rats; 3 mg/kg oral) | efflux ratio at 1 h, 1 μM (MDR1) |
| --- | --- | --- | --- |
| O=C(N[C@H]1CCOC[C@@H]1O)c1cc(Cc2ccc(C(=O)NC[C@@H]3CCCO3)c(F)c2)c2occc2n1 [Example 102, 1,5-anhydro-2,3-dideoxy-3-(((7-(3-fluoro-4-(((2S)-tetrahydrofuran-2-ylmethyl)carbamoyl)benzyl)furo[3,2-b]pyridin-5-yl)carbonyl)amino)-L-threo-pentitol] | 8.9 ± 1.3 | 12.4 ± 0.9 | 20 |
| Cn1cc(-c2ccc(Cc3cc(C(=O)N[C@H]4CCOC[C@@H]4O)nc4c3OCC4)cc2)cn1 [Example 44, 1,5-anhydro-2,3-dideoxy-3-(((7-(4-(1-methyl-1H-pyrazol-4-yl)benzyl)-2,3-dihydrofuro[3,2-b]pyridin-5-yl)carbonyl)amino)-L-threo-pentitol] | – | – | 5.5 |
| O=C(N[C@H]1CCOC[C@@H]1O)c1cc(Cc2ccc(-n3cccn3)cc2)c2c(n1)CCO2 [Example 22, 1,5-anhydro-2,3-dideoxy-3-(((7-(4-(1H-pyrazol-1-yl)benzyl)-2,3-dihydrofuro[3,2-b]pyridin-5-yl)carbonyl)amino)-L-threo-pentitol] | – | – | 2.6 |
| COCCNC(=O)c1ccc(Cc2cc(C(=O)N[C@H]3CCOC[C@@H]3O)nc3ccoc23)cc1F [Example 109, 1,5-anhydro-2,3-dideoxy-3-(((7-(3-fluoro-4-((2-methoxyethyl)carbamoyl)benzyl)furo[3,2-b]pyridin-5-yl)carbonyl)amino)-L-threo-pentitol] | – | – | 10 |
| COCCNC(=O)c1ccc(Cc2cc(C(=O)N[C@H]3CCOC[C@@H]3O)nc3c2OCC3)cc1F [Example 76, 1,5-anhydro-2,3-dideoxy-3-(((7-(3-fluoro-4-((2-methoxyethyl)carbamoyl)benzyl)-2,3-dihydrofuro[3,2-b]pyridin-5-yl)carbonyl)amino)-L-threo-pentitol] | 8.3 ± 0.8 | 10.3 ± 0.9 | 35 |
| Cn1cnc(-c2ccc(Cc3cc(C(=O)N[C@H]4CCOC[C@@H]4O)nc4c3OCC4)cc2)c1 [Example 74, 1,5-anhydro-2,3-dideoxy-3-(((7-(4-(1-methyl-1H-imidazol-4-yl)benzyl)-2,3-dihydrofuro[3,2-b]pyridin-5-yl)carbonyl)amino)-L-threo-pentitol] | – | – | 11 |
| Cn1cc(-c2ccc(Cc3cc(C(=O)N[C@H]4CCOC[C@@H]4O)nc4c3OCC4)cc2)nn1 [Example 31, 1,5-anhydro-2,3-dideoxy-3-(((7-(4-(1-methyl-1H-1,2,3-triazol-4-yl)benzyl)-2,3-dihydrofuro[3,2-b]pyridin-5-yl)carbonyl)amino)-L-threo-pentitol] | 10.0 ± 1.4 | – | 11 |
| O=C(N[C@H]1CCOC[C@@H]1O)c1cc(Cc2ccc(C(=O)NC[C@@H]3CCCO3)c(F)c2)c2c(n1)CCO2 [Example 77, 1,5-anhydro-2,3-dideoxy-3-(((7-(3-fluoro-4-(((2S)-tetrahydrofuran-2-ylmethyl)carbamoyl)benzyl)-2,3-dihydrofuro[3,2-b]pyridin-5-yl)carbonyl)amino)-L-threo-pentitol] | 13.9 ± 1.5 | 12.3 ± 1.6 | 25 |
| Cn1cc(-c2ccc(Cc3cc(C(=O)N[C@H]4CCOC[C@@H]4O)nc4ccoc34)cc2)nn1 [Example 20, 1,5-anhydro-2,3-dideoxy-3-(((7-(4-(1-methyl-1H-1,2,3-triazol-4-yl)benzyl)furo[3,2-b]pyridin-5-yl)carbonyl)amino)-L-threo-pentitol] | 10.6 ± 1.3 | 12.1 ± 1.1 | 4.8 |
| Cn1cc(-c2ccc(C(F)c3cc(C(=O)N[C@H]4CCOC[C@@H]4O)nc4ccoc34)cc2)nn1 (single isomer, unassigned) [Example 55, 1,5-anhydro-2,3-dideoxy-3-(((7-(fluoro(4-(1-methyl-1H-1,2,3-triazol-4-yl)phenyl)methyl)furo[3,2-b]pyridin-5-yl)carbonyl)amino)-L-threo-pentitol] | – | – | 6.5 |
| Cn1cc(-c2ccc(Cc3cc(C(=O)N[C@H]4CCOC[C@@H]4O)nc4ccoc34)cn2)cn1 [Example 36, 1,5-anhydro-2,3-dideoxy-3-(((7-((6-(1-methyl-1H-pyrazol-4-yl)pyridin-3-yl)methyl)furo[3,2-b]pyridin-5-yl)carbonyl)amino)-L-threo-pentitol] | – | – | 9.1 |
